Key:
HDAC 6 = molecular target: T1, HDAC 6 (Homo sapiens, UniProt Q9UBN7); experiment: Caliper HDAC inhibitor profiling assay (microfluidic mobility-shift), HDAC 6; type: biochemical; conditions: 1 hour at room temperature, read-out: IC50 (μM) HDAC6
T1 sequence (Q9UBN7 1-1215): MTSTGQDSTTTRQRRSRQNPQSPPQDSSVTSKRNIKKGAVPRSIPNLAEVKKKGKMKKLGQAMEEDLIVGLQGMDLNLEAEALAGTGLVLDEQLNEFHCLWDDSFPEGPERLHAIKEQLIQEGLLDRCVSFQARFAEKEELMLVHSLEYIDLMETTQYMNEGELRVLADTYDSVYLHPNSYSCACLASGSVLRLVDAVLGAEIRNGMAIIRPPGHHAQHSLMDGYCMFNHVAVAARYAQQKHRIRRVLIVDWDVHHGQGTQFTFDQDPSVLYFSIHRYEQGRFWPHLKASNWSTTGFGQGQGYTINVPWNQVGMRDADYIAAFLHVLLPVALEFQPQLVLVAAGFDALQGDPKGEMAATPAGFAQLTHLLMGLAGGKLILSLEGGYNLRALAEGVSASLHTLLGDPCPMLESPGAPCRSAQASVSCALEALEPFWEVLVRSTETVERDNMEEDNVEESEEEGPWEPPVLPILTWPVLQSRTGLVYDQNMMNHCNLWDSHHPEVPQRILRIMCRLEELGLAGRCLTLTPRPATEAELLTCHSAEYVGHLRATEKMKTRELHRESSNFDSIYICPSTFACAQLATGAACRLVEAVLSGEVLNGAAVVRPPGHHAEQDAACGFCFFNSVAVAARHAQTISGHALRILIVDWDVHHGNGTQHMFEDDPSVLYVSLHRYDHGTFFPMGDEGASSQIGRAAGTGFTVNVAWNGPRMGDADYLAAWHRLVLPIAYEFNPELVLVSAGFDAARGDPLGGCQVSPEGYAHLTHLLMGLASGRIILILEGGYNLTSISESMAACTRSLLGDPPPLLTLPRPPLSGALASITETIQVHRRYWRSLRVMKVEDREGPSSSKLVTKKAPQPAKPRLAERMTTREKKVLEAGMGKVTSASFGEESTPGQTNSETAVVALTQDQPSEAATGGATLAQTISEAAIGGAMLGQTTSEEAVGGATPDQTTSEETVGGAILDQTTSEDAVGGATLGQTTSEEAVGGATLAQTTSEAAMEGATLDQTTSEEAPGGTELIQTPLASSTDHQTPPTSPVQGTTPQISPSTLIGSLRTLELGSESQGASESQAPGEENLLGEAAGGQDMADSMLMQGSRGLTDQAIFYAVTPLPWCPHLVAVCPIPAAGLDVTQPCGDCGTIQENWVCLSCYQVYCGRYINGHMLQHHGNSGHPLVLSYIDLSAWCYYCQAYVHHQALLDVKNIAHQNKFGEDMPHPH
Procedure: The activity of the compounds of the invention against HDAC 3 (Class I) and HDAC 6 (Class II) can be determined using the Caliper Life Sciences HDAC inhibitor profiling assay, which utilises microfluidic mobility-shift detection.
Reaction buffer: 25 mM Tris/Cl, pH 8.0, 137 mM NaCl, 2.7 mM KCl, 1 mM MgCl2, 0.1 mg/ml BSA (fatty acid free).
Stop Buffer: 100 mM HEPES, pH 7.5, 10 mM EDTA, 0.04% Brij-35, 0.25% CR-3, and 2.5 μM Trichostatin A.
Stopped reactions were assembled in microtiter plate wells by adding 1 μL of the inhibitor compound in DMSO, 15 μL 2× Enzyme, and 15 μL 2× peptide. The reactions were incubated for 1 hour at room temperature, stopped with the addition of 45 μL Stop Solution, and read on the LabChip EZ Reader®. The curves were fit with sigmoidal dose response algorithm using GraphPad Prism.

HDAC 7-CAT = molecular target: T2, HDAC 7-CAT (Homo sapiens, UniProt Q8WUI4); experiment: Fluorescence-based HDAC isoform assay with electrophoretic separation, HDAC 7-CAT; type: biochemical; conditions: catalytic domain only, 1 μM FAM-labeled acetylated peptide, 17 h at 25° C.
T2 construct: For HDAC-4 and 7 only catalytic domains were expressed (HDAC-4 CAT and HDAC-7 CAT); 6xHis; made in house; host or cells: Sf9 cells (baculovirus)
T2 sequence (Q8WUI4 512-865 limits assumed): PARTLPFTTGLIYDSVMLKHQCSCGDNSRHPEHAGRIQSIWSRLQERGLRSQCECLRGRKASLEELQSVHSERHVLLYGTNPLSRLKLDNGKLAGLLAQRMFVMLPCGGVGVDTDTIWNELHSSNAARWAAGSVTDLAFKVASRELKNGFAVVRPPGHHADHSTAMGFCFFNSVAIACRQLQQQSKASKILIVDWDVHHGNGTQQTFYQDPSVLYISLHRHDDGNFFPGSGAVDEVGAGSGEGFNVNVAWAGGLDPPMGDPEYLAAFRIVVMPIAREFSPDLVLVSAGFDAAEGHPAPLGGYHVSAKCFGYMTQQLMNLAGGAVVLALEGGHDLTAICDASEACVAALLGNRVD
Procedure: The inhibitory effects of the compounds of Examples 7 and 9 above on HDAC activity were determined using a fluorescence-based assay with electrophoretic separation of substrate and product carried out using a microfluidic system followed by quantitation of fluorescence intensity in the substrate and product peaks.
The assays were performed using isolated HDAC isoforms that had been expressed as 6×His-tagged fusion proteins in a baculovirus expression system in Sf9 cells. HDACs 1, 2, 3, 6, and 8 were expressed as full length fusion proteins. For HDAC-4 and 7 only catalytic domains were expressed (HDAC-4 CAT and HDAC-7 CAT). The HDAC10 fusion protein was expressed as a carboxy-terminal deletion of 38 amino acids (residues 632-669). HDAC3 was coexpressed with a fragment of the SMRT gene (residues 395-489) to generate enzymatically active protein. Purified proteins were incubated with 1 μM carboxyfluorescein (FAM)-labeled acetylated peptide substrate and test compound for 17 h at 25° C. in HDAC assay buffer containing 100 mM HEPES (pH 7.5), 25 mM KCl, 0.1% BSA, and 0.01% Triton X-100. […] Substrate and product were separated electrophoretically using a Caliper LabChip 3000 system with blue laser excitation and green fluorescence detection (CCD2). The fluorescence intensity in the substrate and product peaks was determined using the Well Analyzer software on the Caliper system. […]

| SMILES | IC50 (HDAC 6) [µM] | IC50 (HDAC 7-CAT) [µM] |
| --- | --- | --- |
| C=C1CN(Cc2ccc(C(=O)Nc3ccccc3N)cc2)C(=O)c2ccccc21 [Example 7, N-(2-Aminophenyl)-4-[(4-methylene-1-oxo-3,4-dihydroisoquino-2(1H)-yl)methyl]benzamide] | > 10 | 7.53 |
| C=C1CN(Cc2ccc(C(=O)Nc3ccccc3N)cc2)C(CC(=O)O)c2ccccc21 (stereo not shown) [Example 9, [2-(4-{[(2-Aminophenyl)amino]carbonyl}benzyl)-4-methylene-1,2,3,4-tetra hydroisoquinolin-1-yl]acetic acid] | > 10 | > 30 |
